# Test results: patent publication US4826856A, “Calcium antagonistic dihydropyridine derivative” (Yason s.r.l., priority 1985, dated 1989)
# Like-named read-outs stand apart in the source and are kept apart here.
# How the values were obtained:
# Sprague-Dawley rats [1] = experiment: Ventricular arrhythmias after re-circulation; type: in vivo, rat; conditions: 5 mg/kg p.o.
# Protocol: (§1) Ventricular arrhythmias after coronary artery ligation in the acute phase or during the period of re-circulation
# (§2) Sprague-Dawley rats were subjected to ligation of the left coronary artery according to the method of Clark et al. in J. Pharmacol. Methods 3, 357-368, 1980. The drugs were administered by gastric tube 30 minutes before the ligation. By means of a continuous electrocardiographic recording, the ventricular arrhythmias such as ectopic beats (EB), ventricular tachycardia (VT), ventricular fibrillation (VF) for 30 minutes after ligation, were recorded.
# post-oligoemic rats = experiment: Transient cerebral oligoemia in the rat, cerebral water, K+ and Ca++ content; type: in vivo; conditions: for overall activity in cerebral oligoemia: p.o.
# Protocol: Transient cerebral oligoemia in the rat
# The method described by Borzeix in Circulation et Metabolisme du Cerveau 1, 63-79, John Libbey Eurotext Publ. […] The animals were treated by the oral route with the tested drugs twice a day, starting one hour after the ligation and for 3 days, in scalar doses.
# The last dose, at the 71th hour after the occlusion, preceeded by one hour the sacrifice of the animal, whose brain was subjected to the determination of the H2 O, K^+ and Ca^++ content.
# [2] = Pharmacokinetics and bioavailability in dogs; type: in vivo; conditions: in vivo, 10 mg/kg, dog
# Protocol: YS 201 hydrochloride was intravenously and orally administered to dogs at 1 and 10 mg/kg respectively.
# Rat thoracic aorta = experiment: Inhibition of the contractile response of rat thoracic aorta strips in vitro; conditions: for EC50: Rattus norvegicus
# Protocol: 1. Inhibition of the contractile response of arterial vessels in vitro
# Aortic strips (3 mm wide) were dissected from rat thoracic aorta and bathed in a Krebs-Henseleit solution bubbled with O2 :CO2 (95:5) at 38° C., under a tension of 2 g. After a 30-minutes stabilization period, a contraction was induced by adding either KCl (118 mM) or noradrenaline (10^-5 M.l^-1) in a calcium-free medium (Na EDTA 0.1 mM.l^-1) or noradrenaline (10^-5 M.l^-1) after readmission of calcium (CaCl2 1.25 mM.l^-1).
# Sprague-Dawley rats [3] = experiment: Ventricular arrhythmias during coronary artery ligation period; type: in vivo, rat; design: EBs, mean value of indices + SEM / VT, mean value of indices + SEM / VF, mean value of indices + SEM: scale not given here
# Protocol: as §1, §2
# SHR aorta = SHR aorta pretreatment study (PE or K+ contraction); design: species or system spontaneously hypertensive rat (SHR)
# Protocol: 1.3. SHR aorta--Pretreatment study
# SHR aorta were treated with either PE(1 μM) or high potassium (K^+, 80 mM) and the resulting contraction was allowed to sustain for 15 Minutes. After wash out and equilibration (1 hour), tissues were pretreated with a single concentration of either YS 201 or nifedipine. After a 30-minutes equilibration time, tissues were again challenged with either PE or K^+ and the resultant contraction compared to the initial contraction. Contractile effect was measured at 15 minutes after the addition of the agonist (PE or K^+).
# [4] = noradrenaline 10^-5 M.l^-1, calcium-free medium, read-out: EC50, NA - Ca++ contraction, rat aorta
# [5] = noradrenaline 10^-5 M.l^-1 after readmission of calcium (CaCl2 1.25 mM.l^-1), read-out: EC50, NA + Ca++ contraction, rat aorta
compound,measurement,setting,value
"COc1ccc([C@@H]2Sc3ccccc3N(CCN(C)C)C(=O)[C@@H]2OC(C)=O)cc1 [diltiazem, reference compound]",Death rate %,Sprague-Dawley rats [1],27.3%
same,"EBs, mean value of indices + SEM",Sprague-Dawley rats [1],68.9 ± 32.12
same,VF %,Sprague-Dawley rats [1],45.5%
same,"VF, mean value of indices + SEM",Sprague-Dawley rats [1],8.8 ± 4.64
same,"VT, mean value of indices + SEM",Sprague-Dawley rats [1],4.2 ± 2.54
same,overall activity in cerebral oligoemia,post-oligoemic rats,good activity
COC(=O)C1=C(C)NC(C)=C(C(=O)OCCN(C)Cc2ccccc2)C1c1cccc([N+](=O)[O-])c1 (stereo not drawn) [nicardipine],AUC,"[2]; po, same dose, read-out: AUC (converted)",1280 ng·h/mL
same,Cmax,"[2]; oral, read-out: maximum concentration (Cmax)",220 ng/mL
same,EC50,Rat thoracic aorta; [4],100 µM
same,Death rate %,Sprague-Dawley rats [3]; 0.5 mg/kg p.o.,0%
same,"EBs, mean value of indices + SEM",Sprague-Dawley rats [3]; 0.5 mg/kg p.o.,10.9
same,VF %,Sprague-Dawley rats [3]; 0.5 mg/kg p.o.,66.7%
same,"VF, mean value of indices + SEM",Sprague-Dawley rats [3]; 0.5 mg/kg p.o.,2.5
same,"VT, mean value of indices + SEM",Sprague-Dawley rats [3]; 0.5 mg/kg p.o.,2.5
same,Death rate %,Sprague-Dawley rats [3]; 1.0 mg/kg p.o.,33.3%
same,"EBs, mean value of indices + SEM",Sprague-Dawley rats [3]; 1.0 mg/kg p.o.,22.0
same,VF %,Sprague-Dawley rats [3]; 1.0 mg/kg p.o.,100%
same,"VF, mean value of indices + SEM",Sprague-Dawley rats [3]; 1.0 mg/kg p.o.,0.9
same,"VT, mean value of indices + SEM",Sprague-Dawley rats [3]; 1.0 mg/kg p.o.,0.5
same,Death rate %,Sprague-Dawley rats [3]; 2.0 mg/kg p.o.,25.0%
same,"EBs, mean value of indices + SEM",Sprague-Dawley rats [3]; 2.0 mg/kg p.o.,31.9
same,VF %,Sprague-Dawley rats [3]; 2.0 mg/kg p.o.,75%
same,"VF, mean value of indices + SEM",Sprague-Dawley rats [3]; 2.0 mg/kg p.o.,1.2
same,"VT, mean value of indices + SEM",Sprague-Dawley rats [3]; 2.0 mg/kg p.o.,0.7
same,Cerebral content of Ca++,post-oligoemic rats; 1 mg/kg p.o.,18.4 ± 7.04 mmol · kg^-1 dry weig
same,Cerebral content of K+,post-oligoemic rats; 1 mg/kg p.o.,460.0 ± 18.96 mmol · kg^-1 dry weig
same,Cerebral content of Ca++,post-oligoemic rats; 3 mg/kg p.o.,19.4 ± 5.0 mmol · kg^-1 dry weig
same,Cerebral content of H2O,post-oligoemic rats; 3 mg/kg p.o.,79.2 ± 0.42%
same,overall activity in cerebral oligoemia,post-oligoemic rats,fail
COC(=O)C1=C(C)NC(C)=C(C(=O)OC)C1c1ccccc1[N+](=O)[O-] [nifedipine],"inhibition of K+-induced contractions, SHR aortic strips",SHR aorta,extremely potent inhibitors
same,Death rate %,Sprague-Dawley rats [3]; 1.0 mg/kg p.o.,0%
same,"EBs, mean value of indices + SEM",Sprague-Dawley rats [3]; 1.0 mg/kg p.o.,70.0 ± 24.72
same,VF %,Sprague-Dawley rats [3]; 1.0 mg/kg p.o.,80%
same,"VF, mean value of indices + SEM",Sprague-Dawley rats [3]; 1.0 mg/kg p.o.,1.1 ± 0.55
same,"VT, mean value of indices + SEM",Sprague-Dawley rats [3]; 1.0 mg/kg p.o.,4.4 ± 2.22
same,Death rate %,Sprague-Dawley rats [3]; 1.5 mg/kg p.o.,20.0%
same,"EBs, mean value of indices + SEM",Sprague-Dawley rats [3]; 1.5 mg/kg p.o.,40.5 ± 20.19
same,VF %,Sprague-Dawley rats [3]; 1.5 mg/kg p.o.,60%
same,"VF, mean value of indices + SEM",Sprague-Dawley rats [3]; 1.5 mg/kg p.o.,1.7 ± 0.77
same,"VT, mean value of indices + SEM",Sprague-Dawley rats [3]; 1.5 mg/kg p.o.,2.1 ± 1.75
CCOC(=O)C1=C(C)NC(C)=C(C(=O)OC)C1c1cccc([N+](=O)[O-])c1 (stereo not drawn) [nitrendipine],EC50,Rat thoracic aorta; [5],100 µM
same,activity on contractions induced by noradrenaline in Ca++-free medium vs YS 201,Rat thoracic aorta; rat aorta,slightly more active than YS 201
COc1ccc(CCN(C)CCCC(C#N)(c2ccc(OC)c(OC)c2)C(C)C)cc1OC (stereo not drawn) [verapamil],overall activity in cerebral oligoemia,post-oligoemic rats,good activity
COCCOC(=O)C1=C(C)NC(C)=C(C(=O)OC(C)C)C1c1cccc([N+](=O)[O-])c1 (stereo not drawn) [nimodipine],EC50,Rat thoracic aorta; [4],100 µM
same,EC50,Rat thoracic aorta; [5],100 µM
same,Cerebral content of K+,post-oligoemic rats; 0.5 mg/kg p.o.,442.0 ± 22.40 mmol · kg^-1 dry weig
same,Cerebral content of H2O,post-oligoemic rats; 1.5 mg/kg p.o.,79.3 ± 0.40%
same,overall activity in cerebral oligoemia,post-oligoemic rats,fail
